From PMC5608352, “Formyl peptide derived lipopeptides disclose differences between the receptors in mouse and men and call the pepducin concept in question” (PLoS ONE, 2017)
Entries after “also recorded” stand apart in the source; their conditions may differ. Values belong to the molecule of their own block, whether it stands above or below them. No end group written: not given here. *: point of attachment. Palmitoyl = CCCCCCCCCCCCCCCC(=O)*

Key:
Fpr1 = assay: Inhibition of fMIFL-induced superoxide release, Fpr2^-/- mouse neutrophils; type: cell-based; conditions: Boc2 2 μM, 5 min pre-incubation; fMIFL 10 nM
Source text: (§1) C57BL/6 wild-type mice were purchased from Charles River Laboratories and Fpr2^−/− mice generated as described previously, were generously provided by Dr Ji Ming Wang, Frederick National Laboratory for Cancer Research, USA. Mice were kept under standard temperature and light conditions and fed laboratory chow and water ad libitum, at the Department of Rheumatology and Inflammation Research, University of Gothenburg. Sex matched WT and Fpr2^-/- animals (age 8–10 weeks) were used to isolated bone marrow derived neutrophils. The studies performed were approved by the Ethical Committee for Animal Experimentation, Göteborg, Sweden.
(§2) Mice (8–12 weeks of age) were killed by cervical dislocation, the femurs and tibias were removed and freed of soft tissue attachments, and the extreme distal tip of each extremity was cut off. […] The cell number and population of bone marrow cells were determined by flow cytometry based on forward scatter (size) and side scatter (density) localization.
(§3) NADPH-oxidase activity was determined using an isoluminol and HRP-enhanced chemiluminescence (CL) system that allow for the determination of superoxide production. The CL activity was measured in a six-channel Biolumat LB 9505 apparatus (Berthold Co., Wildbad, Germany), using disposable 4-mL polypropylene tubes with 1 mL reaction mixture. […]

Fpr2^-/- neutrophils = assay: Inhibition of F2Pal16-induced superoxide release, Fpr2^-/- mouse neutrophils; type: cell-based; conditions: Boc2 2 μM, 5 min pre-incubation; F2Pal16 500 nM
Source text: as §1, §2, §3

Fpr2 [1] = target: T1, Fpr2 (Mus musculus, UniProt O88536); assay: Inhibition of F2Pal16-induced superoxide release, WT mouse neutrophils; type: cell-based; conditions: Boc2 2 μM or peptidomimetic inhibitor 1 μM (five experiments), or mF2Pal16 500 nM against F2Pal16 500 nM (three experiments); 5 min pre-incubation
T1 construct: WT mouse neutrophils (5 x 10^4 cells) were pre-incubated without (solid line) or with mF2Pal16; endogenous in cells; host or cells: bone marrow neutrophils of C57BL/6 wild-type mice, TNF-alpha primed
T1 sequence (O88536 1-351): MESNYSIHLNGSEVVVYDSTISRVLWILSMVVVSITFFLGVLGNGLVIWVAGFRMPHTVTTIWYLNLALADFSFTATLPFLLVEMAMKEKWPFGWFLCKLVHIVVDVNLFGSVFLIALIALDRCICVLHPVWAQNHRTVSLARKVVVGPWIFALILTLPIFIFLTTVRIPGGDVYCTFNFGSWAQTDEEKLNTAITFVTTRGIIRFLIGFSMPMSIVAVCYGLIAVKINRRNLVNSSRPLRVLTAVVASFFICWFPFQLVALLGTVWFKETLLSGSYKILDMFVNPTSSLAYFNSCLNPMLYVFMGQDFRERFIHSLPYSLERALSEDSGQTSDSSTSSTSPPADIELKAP
Source text: Mice (8–12 weeks of age) were killed by cervical dislocation, the femurs and tibias were removed and freed of soft tissue attachments, and the extreme distal tip of each extremity was cut off. KRG without Ca^2+ and Mg^2+ (KRG-) was forced through the bone by using a 1-mL syringe with a 27-gauge needle. After dispersing cell clumps and removing the debris, the bone marrow granulocytes were isolated according to an earlier described procedure with some modifications. Briefly, a cell suspension in 2 mL of KRG- was laid on top of a three-layer Percoll gradient (1.095, 1.085, and 1.070 g/mL). The density of each Percoll solution was verified using density marker beads. After centrifugation at 500 × g for 30 min at 4°C in a swinging bucket rotor, the lowest band (1.085/1.095 g/mL interface) was collected as the neutrophil fraction. After washing with KRG-, remaining red blood cells were eliminated by hypotonic lysis. After a final wash with KRG-, the cells were resuspended in KRG. The cell number and population of bone marrow cells were determined by flow cytometry based on forward scatter (size) and side scatter (density) localization.
(§4) NADPH-oxidase activity was determined using an isoluminol and HRP-enhanced chemiluminescence (CL) system that allow for the determination of superoxide production. The CL activity was measured in a six-channel Biolumat LB 9505 apparatus (Berthold Co., Wildbad, Germany), using disposable 4-mL polypropylene tubes with 1 mL reaction mixture. […] The light emission was recorded continuously over time and presented as superoxide production (in arbitrary light units, cpm x10^-6) as a function of time (min). The activity before stimulus addition was recorded as basal line and this activity was not changed in vehicle control samples. […]
Data analysis was performed using Graph Pad Prism 7.0. The EC50/IC50 values were determined from experiments in which the activities were normalized to the response induced by maximal response or induced by agonist in the absence of inhibitor. […]

Fpr2 [2] = target: T1, Fpr2; set-up: method as in PMID 27614010; conditions: ref [12]; cited from earlier work
Source text: When looking at the FPRs in different species it is clear that the receptor family has a complex evolutionary history, as illustrated by the fact that the number of genes in the family vary markedly in mouse and man. […] As different mouse models constitute important tools for translational studies aiming to understa ... || Genetically modified mouse strains and mouse disease models provide excellent tools to study the function of neutrophil FPRs in vivo. Such studies have indicated Fprs (in particular Fpr2) as important regulators of the physiological processes leading to resolution of inflammation. However, a direct translation of mouse data to human studies is hampered due to the distant phylogenetic relationship between mouse and human receptors. In addition to the different number of Fpr genes in mice and humans and an incomplete understanding of the evolutionary relationship between human FPRs ...

FPR2 [3] = assay: Inhibition of F2Pal16 (FPR2 activating pepducin)-induced superoxide release, human neutrophils; type: cell-based; conditions: PBP10 1 μM or CysH 1 μM, 5 min pre-incubation; F2Pal16 1 μM; five experiments
Source text: Human peripheral blood neutrophils were isolated from buffy coats from healthy blood donors using dextran sedimentation and Ficoll-Paque gradient centrifugation as described. The remaining erythrocytes were disrupted by hypotonic lysis and the neutrophils were washed twice, suspended in KRG and, stored on melting ice until use. This isolation process permits cells to be purified with minimal granule mobilization. The buffy coats were obtained from the blood bank at Sahlgrenska University Hospital. Ethics approval was not needed since the buffy coats were provided anonymously and could not be traced back to a specific individual. This is in line with Swedish legislation section code 4§ 3p SFS 2003:460 (Lag om etikprövning av forskning som avser människor).
as §4

[4] = target: formyl peptide receptor Fpr2, mouse (mouse (endogenous in bone marrow neutrophils)) (UniProt O88536)
[5] = target: formyl peptide receptor Fpr2, mouse (mouse (endogenous in bone marrow neutrophils)) (UniProt O88536); remark: listed apart in the source

Molecule: Cyclosporin H
activity at mouse Fprs (earlier work) (Fpr2 [2]): lack effects on their mouse counterparts | effect of inhibitor on F2Pal16 response, human neutrophils (FPR2 [3]): not by the FPR1 inhibitor cyclosporine H

Molecule: Palmitoyl-KIHKQGLIKSSRPLRV [F1Pal16 pepducin (Pal-…)]
EC50 of superoxide release by wild-type mouse neutrophils, dose-response of F1Pal16 [5]: 300 nM

Further lines, with some results ahead:

effect of inhibitor on F2Pal16 response, WT mouse neutrophils (Fpr2 [1]): no effect on the pepducin response
Molecule: Boc-FLFLF [Boc2, Fpr1 antagonist]
effect of inhibitor on fMIFL response, Fpr2^-/- neutrophils (Fpr1): completely abolished | effect of inhibitor on F2Pal16 response, Fpr2^-/- neutrophils (Fpr2^-/- neutrophils): insensitive to Boc2; also recorded: no effect on the pepducin response

EC50 of superoxide release by wild-type mouse neutrophils, dose-response of F2Pal16 (maximum at 1 uM) [4]: 300 nM
Molecule: Palmitoyl-KIHKKGMIKSSRPLRV [F2Pal16 pepducin (Pal-…)]
